Counter-ions that a name gives are not always drawn.
These molecules were tested against T1, human TLR7 (hTLR7) (Homo sapiens, UniProt Q9NYK1) (assay: Antagonist screen, hTLR7-NFκB-293 cells, NF-κB-luciferase reporter, with EC50 of R848). Settings: compound at 0.5, 5, 50 μg/ml; EC50 concentration of R848; 16 h; NF-κB-luciferase.
T1 construct: expressed in transfected cells
T1 sequence (Q9NYK1 27-1049): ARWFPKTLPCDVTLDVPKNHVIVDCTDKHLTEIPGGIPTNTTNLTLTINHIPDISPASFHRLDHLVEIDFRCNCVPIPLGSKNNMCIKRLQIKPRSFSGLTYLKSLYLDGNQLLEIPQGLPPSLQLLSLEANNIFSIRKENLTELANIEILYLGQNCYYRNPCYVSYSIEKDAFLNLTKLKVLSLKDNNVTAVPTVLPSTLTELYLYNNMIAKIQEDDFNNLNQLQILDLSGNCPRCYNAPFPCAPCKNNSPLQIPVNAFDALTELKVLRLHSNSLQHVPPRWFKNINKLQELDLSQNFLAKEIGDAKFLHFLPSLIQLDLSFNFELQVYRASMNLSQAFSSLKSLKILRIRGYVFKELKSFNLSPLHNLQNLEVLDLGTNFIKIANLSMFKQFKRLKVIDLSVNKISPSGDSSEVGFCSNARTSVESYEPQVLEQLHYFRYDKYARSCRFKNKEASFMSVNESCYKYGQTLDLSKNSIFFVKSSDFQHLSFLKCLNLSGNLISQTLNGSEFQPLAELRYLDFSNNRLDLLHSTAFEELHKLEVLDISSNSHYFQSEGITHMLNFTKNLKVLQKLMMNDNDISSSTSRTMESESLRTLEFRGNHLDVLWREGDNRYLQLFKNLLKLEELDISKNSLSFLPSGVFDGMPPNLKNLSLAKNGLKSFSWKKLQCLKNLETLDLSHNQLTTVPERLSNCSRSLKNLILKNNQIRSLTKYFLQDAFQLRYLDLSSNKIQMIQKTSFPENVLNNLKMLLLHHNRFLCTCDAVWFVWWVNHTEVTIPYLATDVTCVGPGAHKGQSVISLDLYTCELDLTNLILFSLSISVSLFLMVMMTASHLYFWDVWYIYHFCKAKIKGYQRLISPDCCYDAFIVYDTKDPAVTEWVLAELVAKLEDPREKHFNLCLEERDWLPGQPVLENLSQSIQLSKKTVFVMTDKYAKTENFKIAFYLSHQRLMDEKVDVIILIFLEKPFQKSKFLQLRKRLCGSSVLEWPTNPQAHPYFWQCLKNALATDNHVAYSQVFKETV
Assay type: cell-based

| Compound | hTLR7 (inhibitory effect, antagonist score) |
| --- | --- |
| CN1CCc2cccc3c2[C@H]1Cc1ccc(O)c(O)c1-3.Cl [compound 101, Apomorphinehydrochloride (R, —)] | — (compounds for which there was no clear down regulation even at 50 μg/ml) |
| CN1CCc2cc3c(c4c2C1Cc1ccccc1-4)OCO3.Cl (stereo not shown) [compound 669, Remerine hydrochloride] | 11 (compounds for which there was clear down regulation only at 50 μg/ml) |
| COc1cc2nc(N3CCN(C(=O)C4CCCO4)CC3)nc(N)c2cc1OC.Cl (stereo not shown) [compound 751, Terazosin hydrochloride] | — (compounds for which there was no clear down regulation even at 50 μg/ml) |
| CN(C)C(=O)C(CCN1CCC(O)(c2ccc(Cl)cc2)CC1)(c1ccccc1)c1ccccc1 [compound 144, Loperamidehydrochloride] | 11 (compounds for which there was clear down regulation only at 50 μg/ml) |
| CCN(CC)CCCNc1nc(-c2ccccc2)nc2ccccc12 [compound 2001] | 11 (compounds for which there was clear down regulation only at 50 μg/ml) |
| COc1cc2nc(N3CCN(C(=O)C4COc5ccccc5O4)CC3)nc(N)c2cc1OC.CS(=O)(=O)O (stereo not shown) [compound 858, Doxazosin mesylate] | — (compounds for which there was no clear down regulation even at 50 μg/ml) |
| COc1cc2c(cc1O)C[C@H]1c3c(cc(O)c(OC)c3-2)CCN1C [compound 600, Boldine] | — (compounds for which there was no clear down regulation even at 50 μg/ml) |
| CC(C)(C)c1ccc(C(O)CCCN2CCC(C(O)(c3ccccc3)c3ccccc3)CC2)cc1 (stereo not shown) [compound 138, Terfenadine] | 11 (compounds for which there was clear down regulation only at 50 μg/ml) |
| CCN(CC)CCCC(C)Nc1nc(/C=C/c2ccc(Cl)cc2)nc2cc3ccccc3cc12 (stereo not shown) [compound 2000] | 13 (compounds for which there was clear down regulation at 0.5 μg/ml, 5 μg/ml, and 50 μg/ml) |

Same assay, conditions: hTLR7-NFκB-293 cells, with EC50 of R848; compound at 0.5, 5 and 50 μg/ml

| Compound | hTLR7 (inhibitory effect) |
| --- | --- |
| CN1CCc2c1nc1ccccc1c2NC(=O)CN1CCN(c2ccccc2)CC1 [compound 1212] | 11 (compounds for which there was clear down regulation only at 50 μg/ml) |
| COc1ccc(Cc2nccc3cc(OC)c(OC)cc23)cc1OC.Cl [compound 583, Papaverinehydrochloride] | 11 (compounds for which there was clear down regulation only at 50 μg/ml) |
| O=C1c2ccc(Oc3ccc(S(=O)(=O)c4ccc(Oc5ccc6c(c5)C(=O)N(c5ccccn5)C6=O)cc4)cc3)cc2C(=O)N1c1ccccn1 [compound 1367] | 11 (compounds for which there was clear down regulation only at 50 μg/ml) |
| COc1cc2cc3c4cc(OC)c(OC)cc4cc[n+]3c(C)c2cc1OC [compound 431, Coralyne chloridehydrate] | — (compounds for which there was no clear down regulation even at 50 μg/ml) |
| CN1CCc2c1nc1ccc(Br)cc1c2N [compound 1142, 6-Bromo-1-methyl-2,3-dihydro-1H-pyrrolo[2,3-b]quinolin-4-ylamine] | 11 (compounds for which there was clear down regulation only at 50 μg/ml) |
| O=c1c2c(nc(NCCO)n1-c1ccccc1)-c1ccccc1CC21CCCC1 [compound 891] | 11 (compounds for which there was clear down regulation only at 50 μg/ml) |
| O=c1c2c(nc(NCCO)n1Cc1ccccc1)-c1ccccc1CC21CCCC1 [compound 926] | 11 (compounds for which there was clear down regulation only at 50 μg/ml) |
| COc1ccc2cc3[n+](cc2c1OC)CCc1cc2c(cc1-3)OCO2.[Cl-] [compound 586, Berberine chloride] | — (compounds for which there was no clear down regulation even at 50 μg/ml) |
| O=C1c2ccc(S(=O)(=O)c3ccc4c(c3)C(=O)N(c3ccccn3)C4=O)cc2C(=O)N1c1ccccn1 [compound 1163] | 11 (compounds for which there was clear down regulation only at 50 μg/ml) |
| Cc1ccc2nc3c(c(N)c2c1)CCN3C [compound 1091, 1,6-Dimethyl-2,3-dihydro-1H-pyrrolo[2,3-b]quinolin-4-ylamine] | 11 (compounds for which there was clear down regulation only at 50 μg/ml) |
| CN(C)CCN(Cc1ccc(Cl)cc1)c1ccccn1.Cl [compound 807, Chloro-pyraminehydrochloride] | — (compounds for which there was no clear down regulation even at 50 μg/ml) |
| CN1CCc2c1nc1ccccc1c2NC(=O)CN1CCCCCC1 [compound 1003] | 11 (compounds for which there was clear down regulation only at 50 μg/ml) |
| NNc1nc2c(c(=O)n1C1CCCC1)C1(CCCC1)Cc1ccccc1-2 [compound 1248] | 11 (compounds for which there was clear down regulation only at 50 μg/ml) |
| CN1CCc2c1nc1ccccc1c2N [compound 990, 1-Methyl-2,3-dihydro-1H-pyrrolo[2,3-b]quinolin-4-ylamine] | — (compounds for which there was no clear down regulation even at 50 μg/ml) |
| CCCCCCCCCCCC(=O)Nc1c2c(nc3ccccc13)N(C)CC2 [compound 1334] | — (compounds for which there was no clear down regulation even at 50 μg/ml) |
| O=c1[nH]c(NCCO)nc2c1C1(CCCC1)Cc1ccccc1-2 [compound 1322] | 11 (compounds for which there was clear down regulation only at 50 μg/ml) |
| Cc1ccc(-n2c(NCCO)nc3c(c2=O)C2(CCCCC2)Cc2ccccc2-3)cc1 [compound 1137] | 12 (compounds for which there was clear down regulation at 5 μg/ml and 50 μg/ml) |
| NNc1nc2c(c(=O)n1-c1ccccc1)C1(CCCC1)Cc1ccccc1-2 [compound 1320] | — (compounds for which there was no clear down regulation even at 50 μg/ml) |
| Nc1c2c(nc3ccccc13)N(Cc1ccccc1)CC2 [compound 1217, 1-Benzyl-2,3-dihydro-1H-pyrrolo[2,3-b]quinolin-4-ylamine] | 13 (compounds for which there was clear down regulation at 0.5 μg/ml, 5 μg/ml, and 50 μg/ml) |
| O=C(CN1CCCC1)Nc1c2c(nc3ccccc13)N(c1ccccc1)CC2 [compound 1244] | 11 (compounds for which there was clear down regulation only at 50 μg/ml) |
| CC[N+](C)(CC)CCC[n+]1c(-c2ccccc2)c2cc(N)ccc2c2ccc(N)cc21.[I-].[I-] [compound 792, Propidium iodide] | — (compounds for which there was no clear down regulation even at 50 μg/ml) |
| CCCCCCN(CCCCCC)CC(=O)Nc1c2c(nc3ccccc13)N(C)CC2 [compound 1224] | 12 (compounds for which there was clear down regulation at 5 μg/ml and 50 μg/ml) |
| CN1CCCCc2c1nc1ccccc1c2N [compound 1185, 1-Methyl-2,3,4,5-tetrahydro-1H-azepino[2,3-b]quinolin-6-ylamine] | — (compounds for which there was no clear down regulation even at 50 μg/ml) |
| Cn1c(NN)nc2c(c1=O)C1(CCCC1)Cc1ccccc1-2 [compound 1213] | 11 (compounds for which there was clear down regulation only at 50 μg/ml) |
| CCOc1ccc(Cc2nccc3cc(OCC)c(OCC)cc23)cc1OCC.Cl [compound 830, Ethaverinehydrochloride] | 11 (compounds for which there was clear down regulation only at 50 μg/ml) |

Reference: US7410975B2, “Small molecule toll-like receptor (TLR) antagonists” (Coley Pharmaceutical Group, Inc., priority 2003, dated 2008)
